In series [1] the test system is Neuroblastoma SH-SY5Y cells (SH/APPwt) with human wild-type β-APP excessively expressed. Briefly: Measurement of β-amyloid (Aβ) production inhibitory effect in cell. In kind it is cell-based. The conditions noted are these: 24 hours, Aβ 1-40 in culture supernatant by HTRF, read-out: IC50 (amount needed to inhibit Aβ production by 50%). As for the experimental part: Neuroblastoma SH-SY5Y cells (SH/APPwt) with human wild-type β-APP excessively expressed therein were prepared at 8×10^5 cells/mL, and 150 μl portions thereof were inoculated into respective wells of a 96-well culture plate (Falcon). The cells were cultured for 2 hours at 37° C. in a 5% gaseous carbon dioxide incubator. Then, a solution which had been preliminarily prepared by adding and suspending the test compound (DMSO (dimethyl sulfoxide) solution) so as to be 2 μl/50 μl medium was added to the cell sap. Namely, the final DMSO concentration was 1%, and the amount of the cell culture was 200 μl. After the incubation was performed for 24 hours from the addition of the test compound, 100 μl of the culture supernatant was collected from each fraction. The amount of the Aβ in each fraction was measured.
The Aβ amount was measured as follows. 10 μl of a homogeneous time resolved fluorescence (HTRF) measurement reagent (Amyloid-β 1-40 peptide; IBA Molecular Holding, S.A.) and 10 μl of the culture supernatant were put into a 384-well half area microplate (black microplate, Costar) and mixed with each other, and then left standing overnight at 4° C. while the light was shielded. Then, the fluorescence intensity (excitation wavelength: 337 nm, measurement wavelength: 620 nm and 665 nm) was measured with a Wallac 1420 multilabel counter (Perkin Elmer life sciences). […]

Series [2] concerns the target T1, Recombinant human BACE1 (Homo sapiens, UniProt P56817).
T1 construct: purchased R&D Systems
The series is described as follows: Assay of BACE1 inhibiting activity. In kind it is biochemical. The conditions noted are these: Recombinant human BACE1 7.4 nM, substrate peptide 18 nM, pH 5.0, 30° C., 3 hours; read-out: IC50 (50% inhibitory concentration against the enzymatic activity). As for the experimental part:
48.5 μL of substrate peptide solution (Biotin-XSEVNLDAEFRHDSGC-Eu: X=ε-amino-n-capronic acid, Eu=Europium cryptate) was added to each well of 96-hole half-area plate (a black plate: Corning Incorporated), and after addition of 0.5 μl of the test compound (dissolved in […]) and 1 μl of Recombinant human BACE1(R&D Systems), the reaction mixture was incubated at 30° C. for 3 hours. The substrate peptide was synthesized by reacting Cryptate TBPCOOH mono SMP (CIS bio international) with Biotin-XSEVNLDAEFRHDSGC (Peptide Institute, Inc.). […]
After the incubation for reaction, 50 μl of 8.0 μg/ml Streptavidin-XL665(CIS bio international) dissolved in phosphate buffer (150 mM K2HPO4—KH2PO4, pH 7.0, 0.008% Triton X-100, 0.8 M KF) was added to each well and left stand at 30° C. for an hour. After then, fluorescence intensity was measured (excitation wavelength: 320 nm, measuring wavelength: 620 nm and 665 nm) using Wallac 1420 multilabel counter (Perkin Elmer life sciences). Enzymatic activity was determined from counting ratio of each wavelength (10,000×Count 665/Count 620) and 50% inhibitory concentration against the enzymatic activity was calculated.

For series [3], the target named is T2, CYP3A4 (Homo sapiens, UniProt P08684). The series is described as follows: CYP3A4 fluorescent MBI test. Also on record: host or cells: Escherichia coli. The conditions noted are these: CYP3A4 expressed in Escherichia coli, substrate 7-BFC. In kind it is in vitro ADME. The method, then: The CYP3A4 fluorescent MBI test is a test of investigating enhancement of CYP3A4 inhibition of a compound by a metabolism reaction, and the test was performed using, as CYP3A4 enzyme expressed in Escherichia coli and employing, as an index, a reaction in which 7-benzyloxytrifluoromethylchmarin (7-BFC) is debenzylated by the CYP3A4 enzyme to produce a metabolite, 7-hydroxytrifluoromethylchmarin (HFC) emitting fluorescent light.
The reaction conditions were as follows: substrate, 5.6 μmol/L 7-BFC; pre-reaction time, 0 or 30 minutes; reaction time, 15 minutes; reaction temperature, 25° C. […]
An enzyme in a K-Pi buffer (pH 7.4) and a test drug solution as a pre-reaction solution were added to a 96-well plate at the composition of the pre-reaction, a part of it was transferred to another 96-well plate so that it was 1/10 diluted by a substrate in a K-Pi buffer, NADPH as a co-factor was added to initiate a reaction as an index (without preincubation) and, after a predetermined time of a reaction, acetonitrile/0.5 mol/L Tris (trishydroxyaminomethane)=4/1 was added to stop the reaction. […] For the plate on which each index reaction had been performed, a fluorescent value of 7-HFC which is a metabolite was measured with a fluorescent plate reader. […]

The nature of series [4]: Metabolism stability test. The conditions noted are these: human liver microsomes 0.5 mg protein/mL, 1 mmol/L NADPH, 37° C., 30 minutes. In kind it is in vitro ADME. The method, then: Using a commercially available pooled human hepatic microsomes, a test compound was reacted for a constant time, a remaining rate was calculated by comparing a reacted sample and an unreacted sample, thereby, a degree of metabolism in liver was assessed.
A reaction was performed (oxidative reaction) at 37° C. for 0 minute or 30 minutes in the presence of 1 mmol/L NADPH in 0.2 mL of a buffer (50 mmol/L Tris-HCl pH 7.4, 150 mmol/L potassium chloride, 10 mmol/L magnesium chloride) containing 0.5 mg protein/mL of human liver microsomes. After the reaction, 50 μL of the reaction solution was added to 100 μL of a methanol/acetonitrile=1/1 (v/v), mixed and centrifuged at 3000 rpm for 15 minutes. The test compound in the supernatant was quantified by LC/MS/MS, and a remaining amount of the test compound after the reaction was calculated, letting a compound amount at 0 minute reaction time to be 100%.
(In general: Microsomes from liver hold many membrane-bound enzymes, among them those of drug oxidation.)

Series [5] addresses T3, CYP1A2 (Homo sapiens, UniProt P05177).
T3 construct: enzyme, pooled human hepatic microsome 0.2 mg protein/mL; from tissue; host or cells: pooled human hepatic microsomes
T3 sequence (P05177 1-516): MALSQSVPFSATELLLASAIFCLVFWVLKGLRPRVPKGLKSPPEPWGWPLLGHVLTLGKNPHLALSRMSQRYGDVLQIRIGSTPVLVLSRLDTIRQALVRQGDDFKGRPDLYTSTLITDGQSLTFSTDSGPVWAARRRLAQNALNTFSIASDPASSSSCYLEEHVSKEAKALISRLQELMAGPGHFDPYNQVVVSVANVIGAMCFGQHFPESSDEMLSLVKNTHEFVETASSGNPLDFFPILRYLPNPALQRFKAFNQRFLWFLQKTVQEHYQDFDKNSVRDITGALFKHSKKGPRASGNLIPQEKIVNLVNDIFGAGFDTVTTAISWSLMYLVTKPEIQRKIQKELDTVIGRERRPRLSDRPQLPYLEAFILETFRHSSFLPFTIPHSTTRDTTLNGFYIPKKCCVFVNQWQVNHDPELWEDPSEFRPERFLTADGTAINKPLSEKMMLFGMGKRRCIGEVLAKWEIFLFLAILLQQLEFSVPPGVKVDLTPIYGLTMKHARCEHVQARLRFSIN
The series is described as follows: CYP inhibition test (7-ethoxyresorufin O-deethylation). The conditions noted are these: pooled human hepatic microsome, 0.5 μmol/L ethoxyresorufin. The series is classed as in vitro ADME. The method, then: (§1) Using commercially available pooled human hepatic microsome, and employing, as markers, 7-ethoxyresorufin O-deethylation (CYP1A2), tolbutamide methyl-hydroxylation (CYP2C9), mephenyloin 4′-hydroxylation (CYP2C19), dextromethorphan O-demethylation (CYP2D6), and terfenedine hydroxylation (CYP3A4) as typical substrate metabolism reactions of human main five CYP enzyme forms (CYP1A2, 2C9, 2C19, 2D6, 3A4), an inhibitory degree of each metabolite production amount by a test compound was assessed. […]
(§2) Each five kinds of substrates, human hepatic microsome, or a test drug in 50 mM Hepes buffer as a reaction solution was added to a 96-well plate at the composition as described above, NADPH, as a cofactor was added to initiate metabolism reactions as markers and, after the incubation at 37° C. for 15 minutes, a methanol/acetonitrile=1/1 (v/v) solution was added to stop the reaction. After the centrifugation at 3000 rpm for 15 minutes, resorufin (CYP1A2 metabolite) in the supernatant was quantified by a fluorescent multilabel counter and tributamide hydroxide (CYP2CP metabolite), mephenyloin 4′ hydroxide (CYP2C19 metabolite), […], and terfenadine alcohol (CYP3A4 metabolite) were quantified by LC/MS/MS. […]

Series [6] addresses T4, CYP2C9 (Homo sapiens, UniProt P11712).
T4 construct: enzyme, pooled human hepatic microsome 0.2 mg protein/mL; from tissue; host or cells: pooled human hepatic microsomes
The series is described as follows: CYP inhibition test (tolbutamide methyl-hydroxylation). In kind it is in vitro ADME. The conditions noted are these: pooled human hepatic microsome. The method, then:
as §1, §2

Series [7] addresses T5, CYP2C19 (Homo sapiens, UniProt P33261).
T5 construct: enzyme, pooled human hepatic microsome 0.2 mg protein/mL; from tissue; host or cells: pooled human hepatic microsomes
The series is described as follows: CYP inhibition test (mephenyloin 4′-hydroxylation). The series is classed as in vitro ADME. The conditions noted are these: pooled human hepatic microsome, 50 μmol/L S-mephenitoin. The method, then:
as §1, §2

Series [8] addresses T2, CYP3A4. Briefly: CYP inhibition test (terfenedine hydroxylation). The series is classed as in vitro ADME. More on the design: enzyme, pooled human hepatic microsome 0.2 mg protein/mL; from tissue; host or cells: pooled human hepatic microsomes. The conditions noted are these: pooled human hepatic microsome, 1 μmol/L terfenedine. The method, then:
as §1, §2

Series [9] concerns the target T6, CYP2D6 (Homo sapiens, UniProt P10635).
T6 construct: enzyme, pooled human hepatic microsome 0.2 mg protein/mL; from tissue; host or cells: pooled human hepatic microsomes
Briefly: CYP inhibition test (dextromethorphan O-demethylation). The conditions noted are these: pooled human hepatic microsome, 5 μmol/L dextromethorphan. The series is classed as in vitro ADME. As for the experimental part:
as §1, §2

Series [10] is described as follows: Solubility test. In kind it is physicochemical. The conditions noted are these: JP-I medium, pH 1.2, simulated gastric fluid, kinetic from dmso stock, from turbidity after 4 hours, read-out: solubility assessed by 3 stages. As for the experimental part:
A 2-fold dilution series (12 points) of a 10 mM solution of a test compound in DMSO was added to a medium (JP-I, JP-II) (2%), and solubility was assessed by 3 stages (High; >40 μM, Medium; 3-40 μM, Low; <3 μM) from a turbidity after 4 hours (crystallization information).
The preparation method of solution was as follows: A 10 mM solution of the compound was prepared with DMSO, and 6 μL of the compound solution was added to 594 μL of an artificial intestinal juice (water and 118 mL of 0.2 mol/L NaOH reagent were added to 250 mL of 0.2 mol/L potassium dihydrogen phosphate reagent to reach 1000 mL) with a pH of 6.8. The mixture was left standing for 16 hours at 25° C., and the mixture was vacuum-filtered. The filtrate was two-fold diluted with methanol/water=1/1.

T2 sequence (P08684 whole entry): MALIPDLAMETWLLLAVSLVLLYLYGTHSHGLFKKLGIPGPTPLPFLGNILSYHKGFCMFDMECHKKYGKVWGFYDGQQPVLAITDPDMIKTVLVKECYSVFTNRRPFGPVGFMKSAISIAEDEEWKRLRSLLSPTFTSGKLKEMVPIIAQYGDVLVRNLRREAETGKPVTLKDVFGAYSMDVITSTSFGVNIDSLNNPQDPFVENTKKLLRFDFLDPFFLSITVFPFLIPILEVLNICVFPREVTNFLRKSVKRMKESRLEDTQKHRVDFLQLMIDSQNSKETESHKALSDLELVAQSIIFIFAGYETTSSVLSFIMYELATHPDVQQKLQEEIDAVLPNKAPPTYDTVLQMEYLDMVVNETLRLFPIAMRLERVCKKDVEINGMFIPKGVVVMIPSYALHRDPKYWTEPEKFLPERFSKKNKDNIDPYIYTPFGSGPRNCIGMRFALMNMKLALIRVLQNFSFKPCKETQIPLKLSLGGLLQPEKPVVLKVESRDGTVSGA
T1 sequence (P56817 46-501): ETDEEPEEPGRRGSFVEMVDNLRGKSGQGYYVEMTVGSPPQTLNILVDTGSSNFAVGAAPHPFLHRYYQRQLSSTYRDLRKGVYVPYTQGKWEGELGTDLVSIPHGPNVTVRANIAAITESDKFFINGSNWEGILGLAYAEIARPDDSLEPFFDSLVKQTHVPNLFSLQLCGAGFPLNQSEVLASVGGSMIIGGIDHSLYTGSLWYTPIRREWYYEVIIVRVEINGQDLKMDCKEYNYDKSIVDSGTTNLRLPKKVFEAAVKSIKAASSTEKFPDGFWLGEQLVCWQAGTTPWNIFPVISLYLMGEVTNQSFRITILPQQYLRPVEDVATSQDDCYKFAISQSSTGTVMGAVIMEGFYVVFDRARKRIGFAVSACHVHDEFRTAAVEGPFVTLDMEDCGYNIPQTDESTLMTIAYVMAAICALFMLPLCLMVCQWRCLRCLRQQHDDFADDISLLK
T4 sequence (P11712 whole entry): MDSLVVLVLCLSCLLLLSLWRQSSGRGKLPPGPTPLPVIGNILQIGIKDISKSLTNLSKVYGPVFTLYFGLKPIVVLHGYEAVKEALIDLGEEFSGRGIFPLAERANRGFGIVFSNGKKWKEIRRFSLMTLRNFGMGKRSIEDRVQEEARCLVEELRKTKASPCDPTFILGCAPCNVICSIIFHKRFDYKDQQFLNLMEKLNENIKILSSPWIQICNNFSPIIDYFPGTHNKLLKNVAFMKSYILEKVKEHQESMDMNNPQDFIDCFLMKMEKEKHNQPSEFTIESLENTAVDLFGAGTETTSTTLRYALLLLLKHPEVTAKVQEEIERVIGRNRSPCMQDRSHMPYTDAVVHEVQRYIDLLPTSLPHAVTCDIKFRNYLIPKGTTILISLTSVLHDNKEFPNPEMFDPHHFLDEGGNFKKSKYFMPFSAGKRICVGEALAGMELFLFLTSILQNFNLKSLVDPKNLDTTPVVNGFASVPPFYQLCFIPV
T6 sequence (P10635 whole entry): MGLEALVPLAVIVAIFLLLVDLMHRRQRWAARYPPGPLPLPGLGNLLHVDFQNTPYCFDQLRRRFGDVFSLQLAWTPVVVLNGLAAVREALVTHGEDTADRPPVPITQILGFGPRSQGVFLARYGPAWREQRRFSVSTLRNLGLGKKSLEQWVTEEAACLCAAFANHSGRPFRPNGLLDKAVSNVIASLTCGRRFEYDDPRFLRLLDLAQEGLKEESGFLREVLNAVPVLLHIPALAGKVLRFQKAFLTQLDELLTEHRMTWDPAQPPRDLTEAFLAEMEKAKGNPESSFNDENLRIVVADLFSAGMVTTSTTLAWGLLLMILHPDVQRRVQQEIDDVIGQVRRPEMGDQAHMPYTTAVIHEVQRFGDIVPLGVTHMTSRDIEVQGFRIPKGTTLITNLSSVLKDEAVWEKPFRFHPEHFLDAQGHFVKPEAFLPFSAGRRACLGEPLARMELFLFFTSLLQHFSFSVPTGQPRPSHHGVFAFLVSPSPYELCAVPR
T5 sequence (P33261 whole entry): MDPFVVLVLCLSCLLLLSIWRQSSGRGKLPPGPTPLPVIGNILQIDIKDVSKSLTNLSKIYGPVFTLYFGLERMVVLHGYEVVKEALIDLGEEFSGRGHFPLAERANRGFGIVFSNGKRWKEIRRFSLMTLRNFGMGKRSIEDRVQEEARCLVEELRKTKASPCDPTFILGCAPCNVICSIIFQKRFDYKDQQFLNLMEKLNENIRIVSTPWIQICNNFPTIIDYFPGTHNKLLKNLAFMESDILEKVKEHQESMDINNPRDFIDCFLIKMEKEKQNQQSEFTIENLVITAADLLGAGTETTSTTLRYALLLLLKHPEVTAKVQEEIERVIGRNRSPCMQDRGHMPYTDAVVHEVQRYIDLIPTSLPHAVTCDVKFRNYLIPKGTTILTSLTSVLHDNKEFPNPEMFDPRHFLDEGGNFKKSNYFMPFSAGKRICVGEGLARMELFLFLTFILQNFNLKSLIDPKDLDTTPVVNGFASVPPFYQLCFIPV

As for `CCC1=C[C@@](C)(c2cc(NC(=O)c3ccc(C#N)cn3)ccc2F)N=C(N)S1` [Compound I-8], the IC50 in series [1] stood at 0.002 µM; in series [2] it was 0.012 µM.

As to `C[C@@]1(c2cc(NC(=O)c3ccc(C#N)cn3)ccc2F)C=C(c2ccccn2)SC(N)=N1` [Compound I-20], the “CYP3A4 MBI: difference between IC50 values (pre-reaction time 0 or 30 minutes)” value in series [3] is given as “(−) (when the difference is 3 μM or less, this was defined as (−))”.

`COc1cnc(C(=O)Nc2ccc(F)c([C@]3(C)C=C(C(C)(C)O)SC(N)=N3)c2)cn1` [Compound I-19]: the “remaining amount of the test compound after the reaction” value in [4] was found to be 96.4%.

Turning to `COCCNC(=O)C1=C[C@@](C)(c2cc(NC(=O)c3ccc(C#N)cn3)ccc2F)N=C(N)S1` [Compound I-2], the IC50 in series [5], in series [6], in series [7], in series [8] and in [9] was > 21 µM in each case.

As a reminder, the solubility is the concentration that dissolves in the medium under given conditions. On to `C[C@@]1(c2cc(NC(=O)c3ccc(C#N)cn3)ccc2F)C=C(CO)SC(N)=N1` [Compound I-6], for which the solubility at 4 h in [10] is > 40 µM.

The values are drawn from patent publication US20120245154A1, “SUBSTITUTED AMINOTHIAZINE DERIVATIVE” (SHIONOGI & CO., LTD., priority 2009, published 2012).
